Converted amounts (≈) assume the structure as drawn.
How the values were obtained:
Assay type in all cases: functional, cell-based, Homo sapiens
A549 = assay: In vitro cytotoxic activity against A 549 (non-small cell lung) using SRB (sulforhodamine B) assay
HCT-15 = assay: In vitro cytotoxic activity against HCT-15 (colon) using SRB (sulforhodamine B) assay
SK-MEL-2 = assay: In vitro cytotoxic activity against SK-MEL-2 (melanoma) using SRB (sulforhodamine B) assay
SK-OV-3 = assay: In vitro cytotoxic activity against SK-OV-3 (ovarian) using SRB (sulforhodamine B) assay
XF498 = assay: In vitro cytotoxic activity against XF 498 (CNS) using SRB (sulforhodamine B) assay
[1] = Homo sapiens, A549, read-out: IC50
[2] = Homo sapiens, HCT-15, read-out: IC50
[3] = Homo sapiens, SK-MEL-2, read-out: IC50
[4] = Homo sapiens, SK-OV-3, read-out: IC50
[5] = Homo sapiens, XF498, read-out: IC50

| Compound | IC50 (A549; [1]) | IC50 (HCT-15; [2]) | IC50 (SK-MEL-2; [3]) | IC50 (SK-OV-3; [4]) | IC50 (XF498; [5]) | IC50 (A549; a549) | IC50 (HCT-15; hct-15) | IC50 (SK-MEL-2; sk-mel-2) | IC50 (SK-OV-3; sk-ov-3) | IC50 (XF498; xf498) |
| --- | --- | --- | --- | --- | --- | --- | --- | --- | --- | --- |
| CCOc1ccc(NC2=C(Cl)C(=O)c3cccnc3C2=O)cc1 | 0.96 µg/mL (≈ 2.92 µM) | 0.32 µg/mL (≈ 0.973 µM) | 0.34 µg/mL (≈ 1.03 µM) | 0.33 µg/mL (≈ 1 µM) | 0.55 µg/mL (≈ 1.67 µM) |  |  |  |  |  |
| CCc1ccc(NC2=C(Cl)C(=O)c3cccnc3C2=O)cc1 | 1.35 µg/mL (≈ 4.32 µM) | 1.39 µg/mL (≈ 4.44 µM) | 1.97 µg/mL (≈ 6.3 µM) | 1.35 µg/mL (≈ 4.32 µM) | 0.66 µg/mL (≈ 2.11 µM) |  |  |  |  |  |
| Cc1ccc(NC2=C(Cl)C(=O)c3ccncc3C2=O)cc1 | 1.22 µg/mL (≈ 4.08 µM) | 0.11 µg/mL (≈ 0.368 µM) | 0.17 µg/mL (≈ 0.569 µM) | 1.54 µg/mL (≈ 5.16 µM) | 1.06 µg/mL (≈ 3.55 µM) |  |  |  |  |  |
| O=C1/C(=N/c2ccc(O)cc2)C(Cl)=C(O)c2cccnc21 | 1.56 µg/mL (≈ 5.19 µM) | 0.86 µg/mL (≈ 2.86 µM) | 0.47 µg/mL (≈ 1.56 µM) | 1.27 µg/mL (≈ 4.22 µM) | 0.97 µg/mL (≈ 3.23 µM) |  |  |  |  |  |
| O=C1C(Cl)=C(Nc2ccc(Cl)cc2)C(=O)c2cnccc21 | 1.27 µg/mL (≈ 3.98 µM) | 0.31 µg/mL (≈ 0.971 µM) | 1.22 µg/mL (≈ 3.82 µM) | 1.86 µg/mL (≈ 5.83 µM) | 1.54 µg/mL (≈ 4.83 µM) |  |  |  |  |  |
| O=C1C(Cl)=C(Nc2ccc(F)cc2)C(=O)c2ncccc21 | 1.25 µg/mL (≈ 4.13 µM) | 0.18 µg/mL (≈ 0.595 µM) | 1.39 µg/mL (≈ 4.59 µM) | 0.5 µg/mL (≈ 1.65 µM) | 0.36 µg/mL (≈ 1.19 µM) |  |  |  |  |  |
| O=C1C(Cl)=C(Nc2ccc(F)cc2)C(=O)c2cnccc21 | 0.66 µg/mL (≈ 2.18 µM) | 0.07 µg/mL (≈ 0.231 µM) | 0.13 µg/mL (≈ 0.429 µM) | 0.17 µg/mL (≈ 0.562 µM) | 0.49 µg/mL (≈ 1.62 µM) |  |  |  |  |  |
| O=C1C(Cl)=C(Nc2ccc(Br)cc2)C(=O)c2cnccc21 | 1.1 µg/mL (≈ 3.03 µM) | 0.18 µg/mL (≈ 0.495 µM) | 0.66 µg/mL (≈ 1.82 µM) | 0.97 µg/mL (≈ 2.67 µM) | 1.28 µg/mL (≈ 3.52 µM) |  |  |  |  |  |
| Cc1ccc(NC2=C(Cl)C(=O)c3cccnc3C2=O)cc1 | 1.14 µg/mL (≈ 3.82 µM) | 0.33 µg/mL (≈ 1.1 µM) | 0.42 µg/mL (≈ 1.41 µM) | 1.27 µg/mL (≈ 4.25 µM) | 1.26 µg/mL (≈ 4.22 µM) |  |  |  |  |  |
| O=C1C(Cl)=C(Nc2ccc(Cl)cc2)C(=O)c2ncccc21 | 5.03 µg/mL (≈ 15.8 µM) | 0.34 µg/mL (≈ 1.07 µM) | 1.3 µg/mL (≈ 4.07 µM) | 1.33 µg/mL (≈ 4.17 µM) | 3.31 µg/mL (≈ 10.4 µM) |  |  |  |  |  |
| O=C1C(Cl)=C(Nc2ccc(CCO)cc2)C(=O)c2ncccc21 | 1.11 µg/mL (≈ 3.38 µM) | 0.48 µg/mL (≈ 1.46 µM) | 0.36 µg/mL (≈ 1.1 µM) | 0.42 µg/mL (≈ 1.28 µM) | 0.52 µg/mL (≈ 1.58 µM) |  |  |  |  |  |
| O=C1C(Cl)=C(Nc2ccc(Br)cc2)C(=O)c2ncccc21 | 4.28 µg/mL (≈ 11.8 µM) | 0.34 µg/mL (≈ 0.935 µM) | 1.26 µg/mL (≈ 3.47 µM) | 0.92 µg/mL (≈ 2.53 µM) | 2.83 µg/mL (≈ 7.78 µM) |  |  |  |  |  |
| N#Cc1ccc(NC2=C(Cl)C(=O)c3cccnc3C2=O)cc1 | 1.7 µg/mL (≈ 5.49 µM) | 1.45 µg/mL (≈ 4.68 µM) | 0.6 µg/mL (≈ 1.94 µM) | 0.55 µg/mL (≈ 1.78 µM) | 1.47 µg/mL (≈ 4.75 µM) |  |  |  |  |  |
| O=C1C(Cl)=C(Nc2ccccc2)C(=O)c2cnccc21 | 1.28 µg/mL (≈ 4.5 µM) | 0.1 µg/mL (≈ 0.351 µM) | 0.52 µg/mL (≈ 1.83 µM) | 0.86 µg/mL (≈ 3.02 µM) | 0.96 µg/mL (≈ 3.37 µM) |  |  |  |  |  |
| O=C1C(Cl)=C(Nc2ccc(CCO)cc2)C(=O)c2cnccc21 | 0.61 µg/mL (≈ 1.86 µM) | 0.18 µg/mL (≈ 0.548 µM) | 0.08 µg/mL (≈ 0.243 µM) | 0.63 µg/mL (≈ 1.92 µM) | 0.06 µg/mL (≈ 0.183 µM) |  |  |  |  |  |
| COC1=C(N)C(=O)c2nc(-c3nc(C(=O)O)c(C)c(-c4ccc(OC)c(OC)c4O)c3N)ccc2C1=O [STREPTONIGRIN] | 0.33 µg/mL (≈ 0.652 µM) | 0.02 µg/mL (≈ 0.0395 µM) | 0.02 µg/mL (≈ 0.0395 µM) | 0.28 µg/mL (≈ 0.553 µM) | 0.31 µg/mL (≈ 0.612 µM) |  |  |  |  |  |
| O=C1C(Cl)=C(Nc2ccccc2)C(=O)c2ncccc21 | 2.3 µg/mL (≈ 8.08 µM) | 0.74 µg/mL (≈ 2.6 µM) | 1.42 µg/mL (≈ 4.99 µM) | 1.34 µg/mL (≈ 4.71 µM) | 1.33 µg/mL (≈ 4.67 µM) |  |  |  |  |  |
| CCc1ccc(NC2=C(Cl)C(=O)c3ccncc3C2=O)cc1 | 0.62 µg/mL (≈ 1.98 µM) | 0.05 µg/mL (≈ 0.16 µM) | 0.07 µg/mL (≈ 0.224 µM) | 0.34 µg/mL (≈ 1.09 µM) | 0.33 µg/mL (≈ 1.06 µM) |  |  |  |  |  |
| COc1ccc(NC2=C(Cl)C(=O)c3cccnc3C2=O)cc1 | 1.27 µg/mL (≈ 4.04 µM) | 0.33 µg/mL (≈ 1.05 µM) | 1.33 µg/mL (≈ 4.23 µM) | 1.3 µg/mL (≈ 4.13 µM) | 1.26 µg/mL (≈ 4 µM) |  |  |  |  |  |
| CCOc1ccc(NC2=C(Cl)C(=O)c3ccncc3C2=O)cc1 | 0.42 µg/mL (≈ 1.28 µM) | 0.03 µg/mL (≈ 0.0913 µM) | 0.04 µg/mL (≈ 0.122 µM) | 0.34 µg/mL (≈ 1.03 µM) | 0.27 µg/mL (≈ 0.821 µM) |  |  |  |  |  |
| CISPLATIN |  |  |  |  |  | 1.8 µg/mL | 2.9 µg/mL | 1.38 µg/mL | 2.07 µg/mL | 2.74 µg/mL |
| N#Cc1ccc(NC2=C(Cl)C(=O)c3ccncc3C2=O)cc1 | 0.8 µg/mL (≈ 2.58 µM) | 0.13 µg/mL (≈ 0.42 µM) | 0.22 µg/mL (≈ 0.71 µM) | 0.21 µg/mL (≈ 0.678 µM) | 0.3 µg/mL (≈ 0.969 µM) |  |  |  |  |  |
| O=C1C(Cl)=C(Nc2ccc(I)cc2)C(=O)c2cnccc21 | 1.96 µg/mL (≈ 4.77 µM) | 0.1 µg/mL (≈ 0.244 µM) | 0.23 µg/mL (≈ 0.56 µM) | 0.29 µg/mL (≈ 0.706 µM) | 0.22 µg/mL (≈ 0.536 µM) |  |  |  |  |  |
| O=C1/C(=N/c2ccc(O)cc2)C(Cl)=C(O)c2ccncc21 | 0.36 µg/mL (≈ 1.2 µM) | 0.05 µg/mL (≈ 0.166 µM) | 0.06 µg/mL (≈ 0.2 µM) | 0.3 µg/mL (≈ 0.998 µM) | 0.32 µg/mL (≈ 1.06 µM) |  |  |  |  |  |
| COc1ccc(NC2=C(Cl)C(=O)c3ccncc3C2=O)cc1 | 0.5 µg/mL (≈ 1.59 µM) | 0.02 µg/mL (≈ 0.0635 µM) | 0.02 µg/mL (≈ 0.0635 µM) | 0.28 µg/mL (≈ 0.89 µM) | 0.31 µg/mL (≈ 0.985 µM) |  |  |  |  |  |
| O=C1C(Cl)=C(Nc2ccc(I)cc2)C(=O)c2ncccc21 | 4.29 µg/mL (≈ 10.4 µM) | 1.27 µg/mL (≈ 3.09 µM) | 3.3 µg/mL (≈ 8.04 µM) | 1.62 µg/mL (≈ 3.95 µM) | 3.61 µg/mL (≈ 8.79 µM) |  |  |  |  |  |
